{"source": "patent US5843402A", "about": "“Synthetic peptides for use in thrombus detection” (Antisoma Research Limited, priority 1989, dated 1998)", "key": {"[1]": {"tested_on": "activated platelets in whole blood (ADP stimulated blood)", "experiment": "Binding of radiolabelled peptides to ADP stimulated blood", "experimental": "(§1) The results (Table 2) indicate that all four peptides can bind platelets in ADP stimulated blood and that higher incorporation can be achieved In clotted blood.\n(§2) Iodogen tubes were prepared by dissolving Iodogen (1, 3, 4, 6-Tetrachloro-3α, 6α-diphenylglycouril) in chloroform at a concentration of 1 mg.ml-^1. Aliquots of 50 μl (50 μg Iodogen) were dispensed into polypropylene cryo-tubes and the chloroform evaporated to dryness. These tubes were then stored dessicated at -20° C. until required.\n(§3) Prior to radiolabelling the peptides were dissolved in phosphate buffered saline (PBS) at a concentration of 50 mg.ml-^1. RGDSYC and […] were first dissolved in a small volume of dimethyl sulphoxide (DMSO) such that the final concentration of DMSO in PBS was 1% v/v.\n(§4) Iodogen tubes were equilibrated to room temperature before the addition of 200 μl peptide solution and 1-10 μl of ^123 I (in aqueous solution). The reaction mixture was then left for 15min at room temperature with occasional shaking. Following the incubation period the reaction mixture was removed and passed through a Sephadex G10 column which had been equilibrated with PBS. The column, which separates radiolabelled peptide from free iodine was eluted with PBS and 2 ml fractions collected. Radioactivity in the fractions was measured and the eluted peptides, represented by the first radioactive peak from the column, collected and stored at 4° C. until required."}, "clotted blood": {"tested_on": "clotted blood", "experiment": "Binding of radiolabelled peptides to clotted blood", "experimental": "as §1, §2, §3, §4"}, "[2]": {"tested_on": "ADP (1 × 10^-5 M)-induced platelet aggregation", "experiment": "Inhibition of ADP-induced platelet aggregation", "assay_type": "cell-based", "experimental": "The effect of these peptides on ADP-induced platelet aggregation was determined and compared with peptide RGDS which is known to inhibit platelet aggregation."}}, "data": [{"sequence": "RGDSCRGDSY", "values": [{"measurement": "bound peptide", "setting": "[1]; 1 ng radiolabelled peptide", "result": 0.01, "unit": "ng"}, {"measurement": "bound peptide", "setting": "[1]; 10 ng radiolabelled peptide", "result": 0.85, "unit": "ng"}, {"measurement": "bound peptide", "setting": "[1]; 100 ng radiolabelled peptide", "result": 9.07, "unit": "ng"}, {"measurement": "bound peptide", "setting": "clotted blood; 1 ng radiolabelled peptide", "result": 0.28, "unit": "ng"}, {"measurement": "bound peptide", "setting": "clotted blood; 10 ng radiolabelled peptide", "result": 2.64, "unit": "ng"}, {"measurement": "bound peptide", "setting": "clotted blood; 100 ng radiolabelled peptide", "result": 29.33, "unit": "ng"}, {"measurement": "percentage inhibition of ADP-induced platelet aggregation", "setting": "[2]; peptide 0.1 mM", "result": 17, "unit": "%"}, {"measurement": "percentage inhibition of ADP-induced platelet aggregation", "setting": "[2]; peptide 0.2 mM", "result": 57, "unit": "%"}, {"measurement": "percentage inhibition of ADP-induced platelet aggregation", "setting": "[2]; peptide 0.4 mM", "result": 79, "unit": "%"}]}]}
